Source: patent publication US20240199623A1 (ILDONG PHARMACEUTICAL CO., LTD., priority 2020, published 2024)

target: human wild type-CFTR (Homo sapiens, UniProt P13569); experiment: Cell-based YFP assay; parameters: expressed in transfected cells; host or cells: CHO-K1 (Chinese hamster ovary); conditions: CHO-K1 cells expressing human wild type-CFTR and YFP-H148Q/I152L; forskolin 20 μM = 100% activity; read-out: Cell-based YFP Assay (EC50) Concentration Range
Protocol: Forskolin (Tocris cat. #1099), Dimethyl sulfoxide (Sigma cat. #D4540), FLUO star Omega microplate reader (BMG Labtech, Ortenberg, Germany), MARS Data Analysis Software (BMG Labtech), GraphPad Prism 5 (GraphPad Software, Inc.) Chinese hamster ovary (CHO-K1) cells expressing human wild type-CFTR and halide sensor YFP-H148Q/I152L were constructed and grown in Dulbecco's modified Eagle's medium (DMEM) supplemented with 10% FBS, 2 mM glutamine, 100 units/ml penicillin and 100 μg/ml streptomycin. Chinese hamster ovary (CHO-K1) cells expressing human wild type-CFTR and halide sensor YFP-H148Q/I152L were seeded in 96-well microplate with 2×10^4 cells/well and incubated in 37° C., 48 hours. Then, each well was washed 3 times with PBS and 100 μL PBS was added in each well. […] YFP fluorescence signal affected by I^− ion influx through CFTR channel was measured in 37° C., FLUO star Omega microplate reader according to the following steps: • i) basal 2 seconds; • ii) 140 mM I^− solution 100 μL addition to each well; • iii) YFP fluorescence signal measurement start after 6 seconds; and • iv) following 14 seconds signal detection in every 0.4 seconds periods. […] Experiments were performed in triplicates and the data was averaged. EC50 values were calculated with MARS Data Analysis Software (BMG Labtech) and GraphPad Prism 5.

Sequence of human wild type-CFTR (P13569 whole entry): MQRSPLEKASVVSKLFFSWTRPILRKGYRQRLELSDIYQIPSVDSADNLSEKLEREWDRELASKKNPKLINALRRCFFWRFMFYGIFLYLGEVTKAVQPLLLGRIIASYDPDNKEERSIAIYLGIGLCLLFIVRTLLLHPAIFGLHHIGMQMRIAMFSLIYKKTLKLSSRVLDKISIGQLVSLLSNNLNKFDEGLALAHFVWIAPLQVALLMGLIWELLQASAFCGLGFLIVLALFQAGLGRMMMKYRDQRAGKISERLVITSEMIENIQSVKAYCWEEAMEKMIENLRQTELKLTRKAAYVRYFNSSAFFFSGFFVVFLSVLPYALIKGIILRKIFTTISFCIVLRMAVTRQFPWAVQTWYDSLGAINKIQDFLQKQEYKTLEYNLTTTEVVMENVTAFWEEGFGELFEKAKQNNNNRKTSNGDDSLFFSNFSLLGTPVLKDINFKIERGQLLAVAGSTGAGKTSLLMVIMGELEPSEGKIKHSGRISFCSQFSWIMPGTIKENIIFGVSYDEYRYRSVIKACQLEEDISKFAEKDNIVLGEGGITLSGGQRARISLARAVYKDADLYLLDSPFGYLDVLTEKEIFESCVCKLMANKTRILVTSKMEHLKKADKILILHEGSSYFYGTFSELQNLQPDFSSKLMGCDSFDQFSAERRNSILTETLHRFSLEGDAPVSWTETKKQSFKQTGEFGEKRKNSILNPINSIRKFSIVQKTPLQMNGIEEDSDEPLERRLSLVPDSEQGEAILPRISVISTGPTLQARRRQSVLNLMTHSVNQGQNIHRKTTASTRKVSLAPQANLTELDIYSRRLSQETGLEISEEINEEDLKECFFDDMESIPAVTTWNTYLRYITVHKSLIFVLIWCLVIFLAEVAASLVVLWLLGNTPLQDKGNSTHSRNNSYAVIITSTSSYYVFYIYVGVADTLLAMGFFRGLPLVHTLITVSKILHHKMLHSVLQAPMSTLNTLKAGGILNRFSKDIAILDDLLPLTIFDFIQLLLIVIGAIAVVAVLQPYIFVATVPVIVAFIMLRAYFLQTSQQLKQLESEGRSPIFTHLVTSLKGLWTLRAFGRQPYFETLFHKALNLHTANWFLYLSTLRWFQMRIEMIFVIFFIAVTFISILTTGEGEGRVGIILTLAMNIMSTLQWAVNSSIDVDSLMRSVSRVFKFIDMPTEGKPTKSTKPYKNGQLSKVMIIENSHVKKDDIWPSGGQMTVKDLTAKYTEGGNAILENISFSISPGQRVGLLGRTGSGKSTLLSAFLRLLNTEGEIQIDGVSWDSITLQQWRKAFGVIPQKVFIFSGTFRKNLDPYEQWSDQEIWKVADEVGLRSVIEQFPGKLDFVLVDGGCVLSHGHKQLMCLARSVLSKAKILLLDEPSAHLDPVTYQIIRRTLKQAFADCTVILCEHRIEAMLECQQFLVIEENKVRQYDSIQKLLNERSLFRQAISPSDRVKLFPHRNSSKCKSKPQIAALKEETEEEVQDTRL

EC50, < 0.2 µM:
COc1ccc(-c2ccnc3cc(C(=O)Nc4ccc(C(=O)N5CCN(c6ccccn6)CC5)cc4)nn23)cc1OC [Compound 338, 7-(3,4-dimethoxyphenyl)-N-(4-(4-(pyridin-2-yl)piperazine-1-carbonyl)phenyl)pyrazolo[1,5-a]pyrimidine-2-carboxamide]
COc1ccc(-c2ccnc3cc(C(=O)N4CCN(C(=O)c5ccccc5)C5(CC5)C4)nn23)cc1OC [Compound 367, (4-benzoyl-4,7-diazaspiro [2.5]octan-7-yl)(7-(3,4-dimethoxyphenyl)pyrazolo[1,5-a]pyrimidin-2-yl)methanone]
COc1ccc(-c2ccnc3cc(C(=O)Nc4ccc(OC(=O)[C@H](C)NC(=O)OC(C)(C)C)cc4)nn23)cc1OC [Compound 228, 4-(7-(3,4-dimethoxyphenyl)pyrazolo[1,5-a]pyrimidine-2-carboxamido) phenyl(tert-butoxycarbonyl)-L-alaninate]
COc1ccc(-c2ccnc3cc(C(=O)Nc4ccc(C(=O)NCCCN5CCOCC5)cc4)nn23)cc1OC [Compound 173, 7-(3,4-dimethoxyphenyl)-N-(4-((3-morpholinopropyl)carbamoyl)phenyl)pyrazolo [1,5-a]pyrimidine-2-carboxamide]
COc1ccc(-c2ccnc3cc(C(=O)Nc4ccc(N5CCNCC5)cn4)nn23)cc1OC [Compound 286, 7-(3,4-dimethoxyphenyl)-N-(5-(piperazin-1-yl)pyridin-2-yl)pyrazolo [1,5-a]pyrimidine-2-carboxamide]
COc1ccc(-c2ccnc3cc(C(=O)N4CCN(C(=O)c5ccccc5)CC4)nn23)cc1OC [Compound 209, (4-benzoylpiperazin-1-yl)(7-(3,4-dimethoxyphenyl)pyrazolo [1,5-a]pyrimidin-2-yl)methanone]
COc1ccc(-c2ccnc3cc(C(=O)N4CCN(C(=O)c5ccccc5)[C@@H](C(C)C)C4)nn23)cc1OC [Compound 376, (S)-(4-benzoyl-3-isopropylpiperazin-1-yl)(7-(3,4-dimethoxyphenyl)pyrazolo[1,5-a]pyrimidin-2-yl)methanone]
COc1ccc(-c2ccnc3cc(C(=O)Nc4ccc(C(=O)N5CCOCC5)c(F)c4)nn23)cc1OC [Compound 174, 7-(3,4-dimethoxyphenyl)-N-(3-fluoro-4-(morpholine-4-carbonyl)phenyl)pyrazolo[1,5-a]pyrimidine-2-carboxamide]
COc1ccc(-c2ccnc3cc(C(=O)N4CCN(C(=O)c5ccccc5C)[C@@H](C)C4)nn23)cc1OC [Compound 381, (S)-(7-(3,4-dimethoxyphenyl)pyrazolo[1,5-a]pyrimidin-2-yl) (3-methyl-4-(2-methylbenzoyl)piperazin-1-yl)methanone]

EC50, ≥ 2 µM:
CCOc1ccc(NC(=O)c2cc3nccc(-c4ccc(F)c(C)c4)n3n2)cc1 [Compound 302, N-(4-ethoxyphenyl)-7-(4-fluoro-3-methylphenyl)pyrazolo [1,5-a]pyrimidine-2-carboxamide]
COc1ccc(-c2ccnc3cc(C(=O)N4CCN(C(C)C)CC4)nn23)cc1OC [Compound 179, (7-(3,4-dimethoxyphenyl)pyrazolo[1,5-a]pyrimidin-2-yl)(4-isopropylpiperazin-1-yl)methanone]
COc1ccc(-c2ccnc3cc(C(=O)N[C@H]4CC[C@H](C(N)=O)CC4)nn23)cc1OC [Compound 74, N-((1R,4R)-4-carbamoylcyclohexyl)-7-(3,4-dimethoxyphenyl)pyrazolo [1,5-a]pyrimidine-2-carboxamide]
COc1ccc(-c2ccnc3cc(C(=O)N4CCOCC4)nn23)cc1OC [Compound 61, (7-(3,4-dimethoxyphenyl)pyrazolo[1,5-a]pyrimidine-2-yl) (morpholino)methanone]
COc1ccc(-c2ccnc3cc(C(=O)Nc4ccc(C(=O)NCCCN(C)C)cc4)nn23)cc1OC [Compound 220, 7-(3,4-dimethoxyphenyl)-N-(4-((3-(dimethylamino)propyl)carbamoyl)phenyl) pyrazolo[1,5-a]pyrimidine-2-carboxamide]
COc1ccc(-c2ccnc3cc(C(=O)NC4CCN(C[C@@H](O)CO)CC4)nn23)cc1OC [Compound 103, (R)-N-(1-(2,3-dihydroxypropyl)piperidin-4-yl)-7-(3,4-dimethoxyphenyl) pyrazolo[1,5-a]pyrimidine-2-carboxamide]
COc1ccc(-c2ccnc3cc(C(=O)Nc4cc(C(F)(F)F)cc(C(F)(F)F)c4)nn23)cc1OC [Compound 291, N-(3,5-bis(trifluoromethyl)phenyl)-7-(3,4-dimethoxyphenyl)pyrazolo [1,5-a]pyrimidine-2-carboxamide]
COc1ccc(-c2ccnc3cc(C(=O)NN4CCN(C)CC4)nn23)cc1OC [Compound 68, 7-(3,4-dimethoxyphenyl)-N-(4-methylpiperazin-1-yl) pyrazolo[1,5-a]pyrimidine-2-carboxamide]
COc1ccc(-c2ccnc3cc(NC(=O)C45CCC(N6CCOCC6)(CC4)CC5)nn23)cc1OC [Compound 288, N-(7-(3,4-dimethoxyphenyl)pyrazolo[1,5-a]pyrimidin-2-yl)-4-morpholinobicyclo[2.2.2]octane-1-carboxamide]
COc1ccc(-c2ccnc3cc(C(=O)Nc4ccc(C(=O)N5CCOCC5)c(OC)c4)nn23)cc1OC [Compound 217, 7-(3,4-dimethoxyphenyl)-N-(3-methoxy-4-(morpholine-4-carbonyl)phenyl)pyrazolo [1,5-a] pyrimidine-2-carboxamide]
COc1ccc(-c2ccnc3cc(C(=O)Nc4ccc(C(=O)NCCCN5CCN(C)CC5)cc4)nn23)cc1OC [Compound 177, 7-(3,4-dimethoxyphenyl)-N-(4-((3-(4-methylpiperazin-1-yl)propyl)carbamoyl)phenyl)pyrazolo[1,5-a]pyrimidine-2-carboxamide]
CCOc1ccc(NC(=O)c2cc3nccc(-c4ccc(OC)c([N+](=O)[O-])c4)n3n2)cc1 [Compound 295, N-(4-ethoxyphenyl)-7-(4-methoxy-3-nitrophenyl)pyrazolo [1,5-a]pyrimidine-2-carboxamide]
CCOc1ccc(NC(=O)c2cc3nccc(-c4cc(OC)c(OC)cc4C)n3n2)cc1 [Compound 339, 7-(4,5-dimethoxy-2-methylphenyl)-N-(4-ethoxyphenyl)pyrazolo [1,5-a]pyrimidine-2-carboxamide]

EC50, 0.2 to 2 µM:
COc1ccc(-c2ccnc3cc(C(=O)N4C[C@H](C)N[C@@H](C)C4)nn23)cc1OC [Compound 359, (7-(3,4-dimethoxyphenyl)pyrazolo[1,5-a]pyrimidin-2-yl) ((3S,5S)-3,5-dimethylpiperazin-1-yl)methanone]
COc1ccc(-c2ccnc3cc(C(=O)N4CCN(C(=O)C5CC5)CC4)nn23)cc1OC [Compound 110, (4-(cyclopropanecarbonyl)piperazin-1-yl)(7-(3,4-dimethoxyphenyl)pyrazolo[1,5-a]pyrimidin-2-yl)methanone]
COc1ccc(-c2ccnc3cc(C(=O)N4CCN(C(=O)c5cccc(Cl)c5)[C@@H](C)C4)nn23)cc1OC [Compound 261, (S)-(4-(3-chlorobenzoyl)-3-methylpiperazin-1-yl) (7-(3,4-dimethoxyphenyl)pyrazolo[1,5-a]pyrimidin-2-yl)methanone]
COc1ccc(-c2ccnc3cc(C(=O)N[C@]45CC[C@](N6CCOCC6)(CC4)CC5)nn23)cc1OC [Compound 320, 7-(3,4-dimethoxyphenyl)-N-(4-morpholinobicyclo[2.2.2]octan-1-yl) pyrazolo[1,5-a]pyrimidine-2-carboxamide]
COc1ccc(-c2ccnc3cc(C(=O)Nc4ccc(OC(C)C)cc4)nn23)cc1OC [Compound 290, 7-(3,4-dimethoxyphenyl)-N-(4-isopropoxyphenyl)pyrazolo [1,5-a]pyrimidine-2-carboxamide]
COc1ccc(-c2ccnc3cc(C(=O)N[C@H]4CC[C@@H](C(=O)OCCCN5CCOCC5)CC4)nn23)cc1OC [Compound 196, 3-morpholinopropyl (1s,4s)-4-(7-(3,4-dimethoxyphenyl)pyrazolo [1,5-a]pyrimidine-2-carboxamido)cyclohexane-1-carboxylate]
COc1ccc(-c2ccnc3cc(C(=O)N4C[C@H](C)NC[C@H]4C)nn23)cc1OC [Compound 360, (7-(3,4-dimethoxyphenyl)pyrazolo[1,5-a]pyrimidin-2-yl) ((2R,5S)-2,5-dimethylpiperazin-1-yl)methanone]
CCC[C@H]1CN(C(=O)c2cc3nccc(-c4ccc(OC)c(OC)c4)n3n2)CCN1 [Compound 373, (S)-(7-(3,4-dimethoxyphenyl)pyrazolo[1,5-a]pyrimidin-2-yl)(3-propylpiperazin-1-yl)methanone]
COc1ccc(-c2ccnc3cc(C(=O)N4CCc5cc(C(=O)N6CCN(C)CC6)ccc54)nn23)cc1OC [Compound 250, (7-(3,4-dimethoxyphenyl)pyrazolo[1,5-a]pyrimidin-2-yl)(5-(4-methylpiperazine-1-carbonyl)indolin-1-yl) methanone]
